# Test results from patent US20190322676A1, “CERAMIDE GALACTOSYLTRANSFERASE INHIBITORS FOR THE TREATMENT OF DISEASE” (BioMarin Pharmaceutical Inc., priority 2016, published 2019).
# Where a name gives a salt, the structure may show the parent alone.
# Biological target: T1, human CGT (ceramide galactosyltransferase), CHO/CGT lysate (Homo sapiens, UniProt Q16880)
# T1 construct: Full-length human CGT cDNA was cloned into the BamH1/Xho1 site of pcDNA3.1 (+); expressed in transfected cells; host or cells: Chinese hamster ovary (CHO) cells; lysate prepared with M-PER
# T1 sequence (Q16880 21-541): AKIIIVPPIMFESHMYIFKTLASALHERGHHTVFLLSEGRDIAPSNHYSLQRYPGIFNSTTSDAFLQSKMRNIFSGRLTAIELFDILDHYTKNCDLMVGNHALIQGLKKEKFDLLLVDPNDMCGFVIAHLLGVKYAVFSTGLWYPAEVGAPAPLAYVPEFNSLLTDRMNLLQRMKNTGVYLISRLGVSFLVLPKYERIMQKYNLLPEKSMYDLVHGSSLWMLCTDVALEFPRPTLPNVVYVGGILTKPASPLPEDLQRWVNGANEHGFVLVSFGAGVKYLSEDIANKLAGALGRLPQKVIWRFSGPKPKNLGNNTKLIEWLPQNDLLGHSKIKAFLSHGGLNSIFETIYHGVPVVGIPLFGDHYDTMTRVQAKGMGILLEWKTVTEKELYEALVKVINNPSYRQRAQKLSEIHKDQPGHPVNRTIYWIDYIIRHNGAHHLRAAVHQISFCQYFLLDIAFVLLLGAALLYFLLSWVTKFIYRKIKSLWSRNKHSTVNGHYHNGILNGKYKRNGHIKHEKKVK
# Assay: CGT enzyme assay, RapidFire/MS/MS readout (Table 1 ranges with one asterisk *)
# Assay type: biochemical
# Details: RapidFire method (range with one asterisk *)
# Method in brief: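 Lysate (4 μg) of CHO cells transfected with full-length human CGT incubated 1 h at 37 °C with compound (0.001–50 μM) in pH 7.2 HEPES buffer with 10 μM C6-NBD-dihydro-ceramide, 17.5 μM UDP-galactose, Mg2+/Mn2+, CHAPS, BSA, 0.5% DMSO; ** set also contained 0.01% Tween 80. Product quantified by RapidFire/MS/MS, normalized to internal standard; IC50 from sigmoidal variable-slope fits.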
row,Structure (SMILES),IC50
1,"CC(C)Oc1ccc2cc(S(=O)(=O)N[C@H](C(=O)N3C4CCC3CC(N)C4)C(F)(F)c3ccc(Br)cc3)ccc2c1 (stereo partly drawn) [Compound 1-1, N-((2R)-3-(3-amino-8-azabicyclo[3.2.1]octan-8-yl)-1-(4-bromophenyl)-1,1-difluoro-3-oxopropan-2-yl)-6-isopropoxynaphthalene-2-sulfonamide]",1 to 10 µM

# Biological target: T1, human CGT (ceramide galactosyltransferase), CHO/CGT lysate
# Assay: CGT enzyme assay, LC-MS/MS readout (Table 1 ranges without asterisk)
# Assay type: biochemical
# Details: LC-MS/MS method (range without asterisk)
# Method in brief: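 Lysate of CHO cells transfected with full-length human CGT incubated 1 h at 37 °C with compound (0.001–50 μM) in HEPES pH 7.2 with 17.5 μM UDP-galactose and C12:0 (2R-OH) ceramide substrate, 0.5% DMSO, no Tween 80. Galactosylceramide product quantified by LC-MS/MS against C12 ceramide internal standard; IC50 calculated.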
row,Structure (SMILES),IC50
1,"CC(C)Oc1ccc2cc(S(=O)(=O)N[C@H](C(=O)N3C4CCC3CC(N)C4)C(F)(F)c3ccc(Br)cc3)ccc2c1 (stereo partly drawn) [Compound 1-1, N-((2R)-3-(3-amino-8-azabicyclo[3.2.1]octan-8-yl)-1-(4-bromophenyl)-1,1-difluoro-3-oxopropan-2-yl)-6-isopropoxynaphthalene-2-sulfonamide]",1 to 10 µM
2,"CC(C)Oc1ccc2cc([C@@H](O)C(=O)N[C@H](C(=O)N3C4CCC3CC(N)C4)C(F)(F)c3ccc(Br)cc3)ccc2c1 (stereo partly drawn) [Compound 19-5, (2R)—N-((2R)-3-(3-amino-8-azabicyclo[3.2.1]octan-8-yl)-1-(4-bromophenyl)-1,1-difluoro-3-oxopropan-2-yl)-2-hydroxy-2-(6-isopropoxynaphthalen-2-yl)acetamide trifluoroacetate]",10 to 30 µM
3,"CC(C)Oc1ccc2cc([C@H](O)C(=O)N[C@@H](C(=O)N3C4CCC3CC(N)C4)C(F)(F)c3ccc(Br)cc3)ccc2c1 (stereo partly drawn) [Compound 19-6, (2S)—N-((2S)-3-(3-amino-8-azabicyclo[3.2.1]octan-8-yl)-1-(4-bromophenyl)-1,1-difluoro-3-oxopropan-2-yl)-2-hydroxy-2-(6-isopropoxynaphthalen-2-yl)acetamide trifluoroacetate]",30 to 100 µM
4,"NC1CC2CCC(C1)N2C(=O)[C@@H](NS(=O)(=O)c1ccc(OCC2CCCC2)cc1)C(F)(F)c1ccc(Br)cc1 (stereo partly drawn) [Compound 20-1, N-((2R)-3-(3-amino-8-azabicyclo[3.2.1]octan-8-yl)-1-(4-bromophenyl)-1,1-difluoro-3-oxopropan-2-yl)-4-(cyclopentylmethoxy)benzenesulfonamide trifluoroacetate]",1 to 10 µM
5,"NC1CC2CCC(C1)N2C(=O)[C@H](NS(=O)(=O)c1ccc(OCC2CCCC2)cc1)C(F)(F)c1ccc(Br)cc1 (stereo partly drawn) [Compound 20-2, N-((2S)-3-(3-amino-8-azabicyclo[3.2.1]octan-8-yl)-1-(4-bromophenyl)-1,1-difluoro-3-oxopropan-2-yl)-4-(cyclopentylmethoxy) benzenesulfonamide trifluoroacetate]",10 to 30 µM
6,"CC(C)Oc1ccc2cc(S(=O)(=O)N[C@H](C(=O)N3C4CCC3CC(N(C)C)C4)C(F)(F)c3ccc(Br)cc3)ccc2c1 (stereo partly drawn) [Compound 21-1, N-((2R)-1-(4-bromophenyl)-3-(3-(dimethylamino)-8-azabicyclo[3.2.1]octan-8-yl)-1,1-difluoro-3-oxopropan-2-yl)-6-isopropoxynaphthalene-2-sulfonamide]",10 to 30 µM
7,"CC(C)Oc1ccc2cc(S(=O)(=O)N[C@@H](C(=O)N3C4CCC3CC(N(C)C)C4)C(F)(F)c3ccc(Br)cc3)ccc2c1 (stereo partly drawn) [Compound 21-2, N-((2S)-1-(4-bromophenyl)-3-(3-(dimethylamino)-8-azabicyclo[3.2.1]octan-8-yl)-1,1-difluoro-3-oxopropan-2-yl)-6-isopropoxy naphthalene-2-sulfonamide]",30 to 100 µM
8,"CCCCOc1ccc(S(=O)(=O)N[C@H](C(=O)N2C3CCC2CC(N)C3)C(F)(F)c2ccc(Br)cc2)cc1 (stereo partly drawn) [Compound 22-1, N-((2R)-3-(3-amino-8-azabicyclo[3.2.1]octan-8-yl)-1-(4-bromophenyl)-1,1-difluoro-3-oxopropan-2-yl)-4-butoxybenzenesulfonamide]",1 to 10 µM
9,"CCCCOc1ccc(S(=O)(=O)N[C@@H](C(=O)N2C3CCC2CC(N)C3)C(F)(F)c2ccc(Br)cc2)cc1 (stereo partly drawn) [Compound 22-2, N-((2S)-3-(3-amino-8-azabicyclo[3.2.1]octan-8-yl)-1-(4-bromophenyl)-1,1-difluoro-3-oxopropan-2-yl)-4-butoxybenzenesulfonamide]",30 to 100 µM
10,"CCCCCCOc1ccc(S(=O)(=O)N[C@H](C(=O)N2C3CCC2CC(N)C3)C(F)(F)c2ccc(Br)cc2)cc1 (stereo partly drawn) [Compound 23-1, N-((2R)-3-(3-amino-8-azabicyclo[3.2.1]octan-8-yl)-1-(4-bromophenyl)-1,1-difluoro-3-oxopropan-2-yl)-4-(hexyloxy)benzenesulfonamide]",1 to 10 µM
11,"CCCCCCOc1ccc(S(=O)(=O)N[C@@H](C(=O)N2C3CCC2CC(N)C3)C(F)(F)c2ccc(Br)cc2)cc1 (stereo partly drawn) [Compound 23-2, N-((2S)-3-(3-amino-8-azabicyclo[3.2.1]octan-8-yl)-1-(4-bromophenyl)-1,1-difluoro-3-oxopropan-2-yl)-4-(hexyloxy)benzenesulfonamide]",30 to 100 µM
12,"NC1CC2CCC(C1)N2C(=O)[C@@H](NS(=O)(=O)c1ccc2cc(OCc3ccccc3)ccc2c1)C(F)(F)c1ccc(Br)cc1 (stereo partly drawn) [Compound 24-1, N-((2R)-3-(3-amino-8-azabicyclo[3.2.1]octan-8-yl)-1-(4-bromophenyl)-1,1-difluoro-3-oxopropan-2-yl)-6-(benzyloxy)naphthalene-2-sulfonamide]",1 to 10 µM
13,"NC1CC2CCC(C1)N2C(=O)[C@H](NS(=O)(=O)c1ccc2cc(OCc3ccccc3)ccc2c1)C(F)(F)c1ccc(Br)cc1 (stereo partly drawn) [Compound 24-2, N-((2S)-3-(3-amino-8-azabicyclo[3.2.1]octan-8-yl)-1-(4-bromophenyl)-1,1-difluoro-3-oxopropan-2-yl)-6-(benzyloxy)naphthalene-2-sulfonamide]",30 to 100 µM
14,"NC1CC2CCC(C1)N2C(=O)[C@@H](NS(=O)(=O)c1ccc(Oc2ccc(F)cc2)cc1)C(F)(F)c1ccc(Br)cc1 (stereo partly drawn) [Compound 25-1, N-((2R)-3-(3-amino-8-azabicyclo[3.2.1]octan-8-yl)-1-(4-bromophenyl)-1,1-difluoro-3-oxopropan-2-yl)-4-(4-fluorophenoxy)benzenesulfonamide trifluoroacetate]",1 to 10 µM
15,"NC1CC2CCC(C1)N2C(=O)[C@H](NS(=O)(=O)c1ccc(Oc2ccc(F)cc2)cc1)C(F)(F)c1ccc(Br)cc1 (stereo partly drawn) [Compound 25-2, N-((2S)-3-(3-amino-8-azabicyclo[3.2.1]octan-8-yl)-1-(4-bromophenyl)-1,1-difluoro-3-oxopropan-2-yl)-4-(4-fluorophenoxy) benzenesulfonamide trifluoroacetate]",30 to 100 µM
16,"NC1CC2CCC(C1)N2C(=O)[C@@H](NS(=O)(=O)c1ccc(OCCC2CCCCC2)cc1)C(F)(F)c1ccc(Br)cc1 (stereo partly drawn) [Compound 26-1, N-((2R)-3-(3-amino-8-azabicyclo[3.2.1]octan-8-yl)-1-(4-bromophenyl)-1,1-difluoro-3-oxopropan-2-yl)-4-(2-cyclohexylethoxy)benzenesulfonamide trifluoroacetate]",1 to 10 µM
17,"NC1CC2CCC(C1)N2C(=O)[C@H](NS(=O)(=O)c1ccc(OCCC2CCCCC2)cc1)C(F)(F)c1ccc(Br)cc1 (stereo partly drawn) [Compound 26-2, N-((2S)-3-(3-amino-8-azabicyclo[3.2.1]octan-8-yl)-1-(4-bromophenyl)-1,1-difluoro-3-oxopropan-2-yl)-4-(2-cyclohexylethoxy)benzenesulfonamide trifluoroacetate]",30 to 100 µM
18,"CC(C)Oc1ccc2cc(S(=O)(=O)N[C@H](C(=O)N3CCC(N)CC3)C(F)(F)c3ccc(Br)cc3)ccc2c1 [Compound 27-1, (R)—N-(3-(4-aminopiperidin-1-yl)-1-(4-bromophenyl)-1,1-difluoro-3-oxopropan-2-yl)-6-isopropoxynaphthalene-2-sulfonamide trifluoroacetate]",1 to 10 µM
19,"CC(C)Oc1ccc2cc(S(=O)(=O)N[C@@H](C(=O)N3CCC(N)CC3)C(F)(F)c3ccc(Br)cc3)ccc2c1 [Compound 27-2, (S)—N-(3-(4-aminopiperidin-1-yl)-1-(4-bromophenyl)-1,1-difluoro-3-oxopropan-2-yl)-6-isopropoxynaphthalene-2-sulfonamide trifluoroacetate]",10 to 30 µM
20,"CC(C)Oc1ccc2cc(S(=O)(=O)N[C@H](C(=O)N3CCC(N)CC3)C(F)(F)c3ccc(Br)cc3)ccc2c1Br [Compound 119-1, (R)—N-(3-(4-aminopiperidin-1-yl)-1-(4-bromophenyl)-1,1-difluoro-3-oxopropan-2-yl)-5-bromo-6-isopropoxynaphthalene-2-sulfonamide]",1 to 10 µM
21,"CC(C)Oc1ccc2cc(S(=O)(=O)N[C@@H](C(=O)N3CCC(N)CC3)C(F)(F)c3ccc(Br)cc3)ccc2c1Br [Compound 119-2, (S)—N-(3-(4-aminopiperidin-1-yl)-1-(4-bromophenyl)-1,1-difluoro-3-oxopropan-2-yl)-5-bromo-6-isopropoxynaphthalene-2-sulfonamide]",10 to 30 µM
22,"NC1CC2CCC(C1)N2C(=O)C(NS(=O)(=O)c1ccc(-c2ccc(F)cc2)nc1)C(F)(F)c1ccc(Br)cc1 (centres unmarked) [Compound 199, N-(3-(3-amino-8-azabicyclo[3.2.1]octan-8-yl)-1-(4-bromophenyl)-1,1-difluoro-3-oxopropan-2-yl)-6-(4-fluorophenyl)pyridine-3-sulfonamide]",30 to 100 µM
